Patent US20220073471A1 (JIANGSU HENGRUI MEDICINE CO., LTD., priority 2019, published 2022)

These molecules were tested against T1, Nav1.8 ion channel stably expressed on HEK293 cells (Homo sapiens, UniProt Q9Y5Y9) (assay: Inhibitory activity on Nav1.8, manual patch clamp). Conditions: resting, clamped at -80 mV, 1 μM TTX, read-out: IC50 on inhibiting the Nav1.8 channel activity.
T1 construct: expressed in transfected cells; host or cells: HEK293
Type: cell-based
Source text: The purpose of the experiment is to investigate the effect of the compounds on Nav1.8 ion channel in an in vitro experiment, wherein the Nav1.8 ion channel is stably expressed on HEK293 cells. After the Nav1.8 current becomes stable, the Nav1.8 currents before and after the administration of the compound are compared so as to obtain the effect of the compound on the Nav1.8 ion channel.
Except for NaOH and KOH used for acid titration and base titration, all the compounds used for formulating the extracellular fluid and intracellular fluid were purchased from Sigma (St. Louis, Mo.). Extracellular fluid (mM): NaCl, 137; KCl, 4; CaCl2), 1.8; MgCl2, 1; HEPES, 10; glucose, 10; pH 7.4 (NaOH titration). Intracellular fluid (mM): aspartic acid, 140; MgCl2, 2; EGTA, 11; HEPES, 10; pH 7.2 (CsOH titration). All solutions of test compound and control compound contained 1 μM TTX.
The test compound was dissolved in dimethyl sulfoxide (DMSO) at a stock concentration of 9 mM. The stock solution of the test compound was dissolved in the extracellular fluid on the day of the test and formulated into the required concentration.
1) The compound was formulated into solutions with specified concentrations, the solutions were added to the pipelines respectively in order from low to high concentration, and the pipelines were marked.
2) The cell was transferred to the perfusion tank. A positive pressure was applied to the electrode. The tip of the electrode touched the cell. The three-way valve of the air extracting device was adjusted to a three-way state. A negative pressure was applied to the electrode, so that a high-resistance seal was formed between the electrode and the cell.
The negative pressure was applied continuously, thereby causing the cell membrane to rupture and forming a current path.
3) After the current for rupturing the cell membrane became stable, perfusion of different concentrations was carried out in sequence. Once the current was stable for at least one minute, perfusion of the next concentration was carried out.
4) The perfusion tank was cleaned. The perfusion tank was rinsed with the drug solutions in order from high to low concentration, and the rinse duration for each concentration of drug solution was 20 seconds. The perfusion tank was finally rinsed with the extracellular fluid for 1 minute.
The cell was clamped at −80 mV. The cell was depolarized to 10 mV with a square wave lasting 10 milliseconds to obtain the Nav1.8 current. This procedure was repeated every 5 seconds. The maximum current caused by the square wave was measured. After the current became stable, the test compound was perfused. After the response became stable, the blocking intensity was calculated.
The data was stored in the computer system for analysis. Data collection and analysis were carried out by pCLAMP 10 (Molecular Devices, Union City, Calif.), and the analysis results were reviewed by the administrator. Stable current means that the current changes within a limited range over time. The magnitude of stable current was used to calculate the effect of the compound at the concentration.

T1 sequence (Q9Y5Y9 whole entry): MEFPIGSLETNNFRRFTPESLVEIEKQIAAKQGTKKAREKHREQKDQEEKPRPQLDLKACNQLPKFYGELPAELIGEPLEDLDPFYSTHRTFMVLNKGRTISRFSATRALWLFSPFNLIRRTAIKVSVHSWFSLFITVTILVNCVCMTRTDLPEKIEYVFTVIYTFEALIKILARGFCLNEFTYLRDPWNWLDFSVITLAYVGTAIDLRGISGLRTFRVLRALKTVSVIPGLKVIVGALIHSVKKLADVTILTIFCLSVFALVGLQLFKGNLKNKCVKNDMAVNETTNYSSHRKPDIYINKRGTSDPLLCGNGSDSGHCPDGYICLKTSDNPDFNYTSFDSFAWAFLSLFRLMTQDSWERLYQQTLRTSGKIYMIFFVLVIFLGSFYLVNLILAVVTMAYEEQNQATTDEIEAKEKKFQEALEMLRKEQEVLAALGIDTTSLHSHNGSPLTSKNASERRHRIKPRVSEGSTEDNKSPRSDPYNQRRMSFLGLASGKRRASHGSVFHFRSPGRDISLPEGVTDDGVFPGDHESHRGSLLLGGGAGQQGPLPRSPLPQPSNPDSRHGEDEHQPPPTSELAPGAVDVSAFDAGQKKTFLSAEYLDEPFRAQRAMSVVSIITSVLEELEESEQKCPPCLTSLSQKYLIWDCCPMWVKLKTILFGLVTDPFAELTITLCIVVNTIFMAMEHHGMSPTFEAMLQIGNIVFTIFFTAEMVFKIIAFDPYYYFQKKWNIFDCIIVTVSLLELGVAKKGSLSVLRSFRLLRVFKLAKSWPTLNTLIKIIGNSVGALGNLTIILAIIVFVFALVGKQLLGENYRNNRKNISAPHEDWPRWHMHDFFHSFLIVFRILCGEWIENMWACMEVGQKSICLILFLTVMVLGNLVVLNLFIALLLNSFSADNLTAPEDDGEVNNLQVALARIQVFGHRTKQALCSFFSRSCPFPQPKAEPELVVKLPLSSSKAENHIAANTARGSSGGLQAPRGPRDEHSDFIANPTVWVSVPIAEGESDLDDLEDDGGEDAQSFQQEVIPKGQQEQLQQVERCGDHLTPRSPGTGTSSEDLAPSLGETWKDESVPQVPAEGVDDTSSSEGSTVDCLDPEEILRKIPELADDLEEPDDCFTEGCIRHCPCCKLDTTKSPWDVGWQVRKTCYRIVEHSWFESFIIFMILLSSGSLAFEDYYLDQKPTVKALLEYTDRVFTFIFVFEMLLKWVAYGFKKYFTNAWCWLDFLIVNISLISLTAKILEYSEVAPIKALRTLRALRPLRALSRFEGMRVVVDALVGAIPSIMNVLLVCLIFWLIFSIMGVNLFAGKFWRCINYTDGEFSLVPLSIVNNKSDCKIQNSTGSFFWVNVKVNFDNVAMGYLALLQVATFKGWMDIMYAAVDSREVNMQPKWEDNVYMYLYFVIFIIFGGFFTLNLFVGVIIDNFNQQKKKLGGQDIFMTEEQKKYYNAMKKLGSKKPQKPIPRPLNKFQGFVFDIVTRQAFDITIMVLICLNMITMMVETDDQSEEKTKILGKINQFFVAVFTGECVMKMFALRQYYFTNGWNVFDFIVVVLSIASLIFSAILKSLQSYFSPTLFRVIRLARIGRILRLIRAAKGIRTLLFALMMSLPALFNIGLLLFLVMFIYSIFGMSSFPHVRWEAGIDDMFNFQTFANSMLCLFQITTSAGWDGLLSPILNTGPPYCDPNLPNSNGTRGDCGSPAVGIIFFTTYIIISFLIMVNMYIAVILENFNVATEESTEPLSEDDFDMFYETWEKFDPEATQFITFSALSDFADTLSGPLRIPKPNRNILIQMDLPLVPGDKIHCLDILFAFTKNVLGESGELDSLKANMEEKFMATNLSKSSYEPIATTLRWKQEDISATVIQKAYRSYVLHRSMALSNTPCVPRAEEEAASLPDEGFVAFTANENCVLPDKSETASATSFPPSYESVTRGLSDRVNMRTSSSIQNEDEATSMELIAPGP

First: COc1cc(F)ccc1Oc1cc(Cl)c(Cl)cc1C(=O)Nc1cn[nH]c(=O)c1 [Example 1, 4,5-Dichloro-2-(4-fluoro-2-methoxyphenoxy)-N-(6-oxo-1,6-dihydropyridazin-4-yl)benzamide]
Second: COc1cc(F)ccc1Oc1cc(Cl)c(F)cc1C(=O)Nc1cn[nH]c(=O)c1 [Example 18, 4-Chloro-5-fluoro-2-(4-fluoro-2-methoxyphenoxy)-N-(6-oxo-1,6-dihydropyridazin-4-yl)benzamide]
The IC50 of the first is 14-fold lower: 1.6 nM for the first, 22.2 nM for the second.

Going from `Cc1cc(F)ccc1Oc1cc(Cl)c(Cl)cc1C(=O)Nc1cn[nH]c(=O)c1` [Example 3, 4,5-Dichloro-2-(4-fluoro-2-methylphenoxy)-N-(6-oxo-1,6-dihydropyridazin-4-yl)benzamide] to `Cc1cc(F)ccc1Oc1cc(Cl)c(F)cc1C(=O)Nc1cn[nH]c(=O)c1` [Example 19, 4-Chloro-5-fluoro-2-(4-fluoro-2-methylphenoxy)-N-(6-oxo-1,6-dihydropyridazin-4-yl)benzamide], the IC50 rises from 3.3 nM to 31.7 nM (9.6-fold).

Going from `O=C(Nc1cn[nH]c(=O)c1)c1cc(Cl)c(Cl)cc1Oc1ccc(F)cc1` [Example 4, 4,5-Dichloro-2-(4-fluorophenoxy)-N-(6-oxo-1,6-dihydropyridazin-4-yl)benzamide] to `Cc1cc(F)ccc1Oc1cc(Cl)ccc1C(=O)Nc1cn[nH]c(=O)c1` [Example 20, 4-Chloro-2-(4-fluoro-2-methylphenoxy)-N-(6-oxo-1,6-dihydropyridazin-4-yl)benzamide], the IC50 rises from 14.1 nM to 58.5 nM (4.1-fold). The first is the more potent here.

Going from `Cc1cc(F)ccc1Oc1cc(C(F)(F)C(F)(F)F)ccc1C(=O)Nc1cn[nH]c(=O)c1` [Example 5, 2-(4-Fluoro-2-methylphenoxy)-N-(6-oxo-1,6-dihydropyridazin-4-yl)-4-(perfluoroethyl)benzamide] to `Cc1cc(F)ccc1Oc1cc(C(F)(F)F)ccc1C(=O)Nc1cn[nH]c(=O)c1` [Example 9, 2-(4-Fluoro-2-methylphenoxy)-N-(6-oxo-1,6-dihydropyridazin-4-yl)-4-(trifluoromethyl)benzamide], the IC50 rises from 23.7 nM to 83.4 nM (3.5-fold).

`Cc1cc(OC(F)(F)F)ccc1Oc1cc(C(F)(F)F)ccc1C(=O)Nc1cn[nH]c(=O)c1` [Example 6, 2-(2-Methyl-4-(trifluoromethoxy)phenoxy)-N-(6-oxo-1,6-dihydropyridazin-4-yl)-4-(trifluoromethyl)benzamide] and `Cc1cc(F)ccc1Oc1ccc(C(F)(F)F)cc1C(=O)Nc1cn[nH]c(=O)c1` [Example 7, 2-(4-Fluoro-2-methylphenoxy)-N-(6-oxo-1,6-dihydropyridazin-4-yl)-5-(trifluoromethyl)benzamide] are within 1.5-fold of each other in IC50: 24.4 nM for the first, 30.8 nM for the second.

Compared with `COc1cc(F)ccc1Oc1cc(C(F)(F)F)ccc1C(=O)Nc1cn[nH]c(=O)c1` [Example 8, 2-(4-Fluoro-2-methoxyphenoxy)-N-(6-oxo-1,6-dihydropyridazin-4-yl)-4-(trifluoromethyl)benzamide], `COc1cc(F)ccc1Oc1ccc(C(F)(F)F)cc1C(=O)Nc1cn[nH]c(=O)c1` [Example 16, 2-(4-Fluoro-2-methoxyphenoxy)-N-(6-oxo-1,6-dihydropyridazin-4-yl)-5-(trifluoromethyl)benzamide] is 2.6-fold lower in IC50: 45.8 nM for the first, 17.9 nM for the second.

First: Cc1cc(F)ccc1Cc1cc(C(F)(F)F)c(Cl)cc1C(=O)Nc1cn[nH]c(=O)c1 [Example 13, 5-Chloro-2-(4-fluoro-2-methylbenzyl)-N-(6-oxo-1,6-dihydropyridazin-4-yl)-4-(trifluoromethyl)benzamide]
Second: Cc1cc(F)ccc1Oc1cc(Cl)c(C(F)(F)F)cc1C(=O)Nc1cn[nH]c(=O)c1 [Example 27, 4-Chloro-2-(4-fluoro-2-methylphenoxy)-N-(6-oxo-1,6-dihydropyridazin-4-yl)-5-(trifluoromethyl)benzamide]
The IC50 of the first is 2.5-fold lower: 2.3 nM for the first, 5.7 nM for the second. The first is the more potent here.

`O=C(Nc1cn[nH]c(=O)c1)c1cc(Cl)c(C(F)(F)F)cc1Oc1ccc(OC(F)(F)F)cc1F` [Example 14, 5-Chloro-2-(2-fluoro-4-(trifluoromethoxy)phenoxy)-N-(6-oxo-1,6-dihydropyridazin-4-yl)-4-(trifluoromethyl)benzamide] and `O=C(Nc1cn[nH]c(=O)c1)c1cc(Cl)c(C(F)(F)F)cc1Oc1ccc(F)cc1OC(F)F` [Example 37, 5-Chloro-2-(2-(difluoromethoxy)-4-fluorophenoxy)-N-(6-oxo-1,6-dihydropyridazin-4-yl)-4-(trifluoromethyl)benzamide] are within 1.5-fold of each other in IC50: 2.5 nM for the first, 2.38 nM for the second.

Compared with `COc1cc(F)ccc1Sc1cc(C(F)(F)F)c(Cl)cc1C(=O)Nc1cn[nH]c(=O)c1` [Example 17, 5-Chloro-2-((4-fluoro-2-methoxyphenyl)thio)-N-(6-oxo-1,6-dihydropyridazin-4-yl)-4-(trifluoromethyl)benzamide], `CCc1cc(F)ccc1Oc1cc(C(F)(F)F)c(Cl)cc1C(=O)Nc1cn[nH]c(=O)c1` [Example 36, 5-Chloro-2-(2-ethyl-4-fluorophenoxy)-N-(6-oxo-1,6-dihydropyridazin-4-yl)-4-(trifluoromethyl)benzamide] is 12-fold lower in IC50: 18 nM for the first, 1.54 nM for the second. The second is the more potent here.

First: COc1cc(F)ccc1Oc1cc(Cl)ccc1C(=O)Nc1cn[nH]c(=O)c1 [Example 21, 4-Chloro-2-(4-fluoro-2-methoxyphenoxy)-N-(6-oxo-1,6-dihydropyridazin-4-yl)benzamide]
Second: Cc1cc(F)ccc1Oc1ccc(Cl)cc1C(=O)Nc1cn[nH]c(=O)c1 [Example 23, 5-Chloro-2-(4-fluoro-2-methylphenoxy)-N-(6-oxo-1,6-dihydropyridazin-4-yl)benzamide]
The IC50 of the first is 1.6-fold lower: 59.4 nM for the first, 92.3 nM for the second.

First: COc1cc(F)ccc1Oc1ccc(OC(F)(F)F)cc1C(=O)Nc1cn[nH]c(=O)c1 [Example 22, 2-(4-Fluoro-2-methoxyphenoxy)-N-(6-oxo-1,6-dihydropyridazin-4-yl)-5-(trifluoromethoxy)benzamide]
Second: CCOc1cc(F)ccc1Oc1cc(C(F)(F)F)c(Cl)cc1C(=O)Nc1cn[nH]c(=O)c1 [Example 32, 5-Chloro-2-(2-ethoxy-4-fluorophenoxy)-N-(6-oxo-1,6-dihydropyridazin-4-yl)-4-(trifluoromethyl)benzamide]
The IC50 of the first is 240-fold higher: 87.8 nM for the first, 0.37 nM for the second. The second is the more potent here.

Compared with `Cc1cc(Oc2ccc(F)cc2C)c(C(=O)Nc2cn[nH]c(=O)c2)cc1Cl` [Example 28, 5-Chloro-2-(4-fluoro-2-methylphenoxy)-4-methyl-N-(6-oxo-1,6-dihydropyridazin-4-yl)benzamide], `Cc1cc(F)ccc1Oc1cc(C(F)(F)F)c(C)cc1C(=O)Nc1cn[nH]c(=O)c1` [Example 34, 2-(4-Fluoro-2-methylphenoxy)-5-methyl-N-(6-oxo-1,6-dihydropyridazin-4-yl)-4-(trifluoromethyl)benzamide] is 2.2-fold higher in IC50: 5.2 nM for the first, 11.5 nM for the second.

Going from `Cc1cc(F)ccc1Oc1cc(C(F)(F)F)cc(C(F)(F)F)c1C(=O)Nc1cn[nH]c(=O)c1` [Example 29, 2-(4-Fluoro-2-methylphenoxy)-N-(6-oxo-1,6-dihydropyridazin-4-yl)-4,6-bis(trifluoromethyl)benzamide] to `CC(C)Oc1cc(F)ccc1Oc1cc(C(F)(F)F)c(Cl)cc1C(=O)Nc1cn[nH]c(=O)c1` [Example 42], the IC50 falls from 90.4 nM to 2.98 nM (30-fold). The second is the more potent here.

Compared with `Cc1ccccc1Oc1cc(C(F)(F)F)c(Cl)cc1C(=O)Nc1cn[nH]c(=O)c1` [Example 30, 5-Chloro-N-(6-oxo-1,6-dihydropyridazin-4-yl)-2-(o-tolyloxy)-4-(trifluoromethyl)benzamide], `O=C(Nc1cn[nH]c(=O)c1)c1cc(Cl)c(C(F)(F)F)cc1Oc1ccc(F)c2c1CCC2` [Example 39, 5-Chloro-2-((7-fluoro-2,3-dihydro-1H-inden-4-yl)oxy)-N-(6-oxo-1,6-dihydropyridazin-4-yl)-4-(trifluoromethyl)benzamide] is 68-fold lower in IC50: 16.2 nM for the first, 0.24 nM for the second. The second is the more potent here.

First: O=C(Nc1cn[nH]c(=O)c1)c1cc(Cl)c(C(F)(F)F)cc1Oc1ccc(F)cc1OC1CCCC1 [Example 40, 5-Chloro-2-(2-(cyclopentyloxy)-4-fluorophenoxy)-N-(6-oxo-1,6-dihydropyridazin-4-yl)-4-(trifluoromethyl)benzamide]
Second: O=C(Nc1cn[nH]c(=O)c1)c1cc(Cl)c(C(F)(F)F)cc1Oc1ccc(F)cc1OC1CCC1 [Example 41, 5-Chloro-2-(2-cyclobutoxy-4-fluorophenoxy)-N-(6-oxo-1,6-dihydropyridazin-4-yl)-4-(trifluoromethyl)benzamide]
The IC50 of the first is 5.8-fold lower: 0.32 nM for the first, 1.86 nM for the second.
